Results from patent publication US7101878B1 (Agouron Pharmaceuticals, Inc., priority 1998, dated 2006).
Entries after “also recorded” stand apart in the source; their conditions may differ. Read-outs that look alike come from different tables or passages of the source. Where a SMILES comes first, the peptide text is derived from it. [ ]: non-standard residue; d: D form. The star is where a group is joined. dPhe(4-Cl) = N[C@H](Cc1ccc(Cl)cc1)C(=O)O; d2Nal = N[C@H](Cc1ccc2ccccc2c1)C(=O)O; Lys(iPr) = CC(C)NCCCC[C@H](N)C(=O)O; d3Pal = N[C@H](Cc1cccnc1)C(=O)O; Nicotinoyl = O=C(c1cccnc1)*

What was measured:
[1] = system: LH levels in castrated rats; assay: Castrated male rat model, LH suppression; format: in vivo
Description: Experimental Protocol: Male Sprague-Dawley (225-250 g) rats were castrated and allowed 10 days postoperative recovery. Ten days post castration animals were instrumented with indwelling femoral venous and arterial catheters to facilitate remote infusions and blood sampling. On the day of the experiment, animals were allowed to acclimate to the procedure room while residing in their home cage. Basal blood samples were drawn from all animals. Following basal sampling, either vehicle (10% DMSO, 10% cremophor/saline), Antide (1.0 μg) or compound 11 (10 mg/kg) was administered intravenously. Blood samples were drawn 10, 60, 90, 120, 180, 240 minutes after injections. Blood was centrifuged, serum collected and stored in −70° freezer until assayed. Serum samples were analyzed using DSL-4600 ACTIVE LH coated-tube immunoradiometric assay kit from Diagnostic Systems Laboratories, Inc.
Surgical removal of the gonads removes circulating testosterone and eliminates the negative feedback of testosterone on the hypothalamus. […] This model seems suitable for evaluating small molecule GnRH antagonists.
Male Sprague-Dawley ([…]) rats were castrated via the scrotal approach under halothane anesthesia. Animals were allowed 14 days post operative recovery prior to study. Thirteen days following castration, animals were anesthetized with halothane and instrumented with indwelling jugular vein cannula. Details of the cannulation procedure have been described previously {Harms and Ojeda, 1974)}. On study day, animals were allowed to acclimate to the procedure room while residing in their home cage. Basal blood samples were drawn from all animals. Immediately following basal sampling, vehicle or test compounds were administered by various routes. The routes of administration employed were intravenous (iv), intramuscular (im), intraperitoneal (ip), subcutaneous (sc) and oral (po). Blood samples were drawn into heparin containing tubes at multiple time points post treatment. Blood was centrifuged immediately, plasma collected and stored in −20° freezer until assayed. Plasma samples were analyzed using DSL-4600 ACTIVE LH coated-tube immunoradiometric assay kit from Diagnostic Systems Laboratories, Inc.
Formulation #1 (denoted with superscript 1): 10% DMSO, 10% Cremophor EL and 80% physiological saline.
Formulation #2 (denoted with superscript 2): 10% Cremophor EL and 90% physiological saline.

[2] = molecular target: T1, bovine GnRH receptor (Bos taurus, UniProt P32236); assay: Radioligand binding, 125I-GnRH-A, bovine pituitary membranes
T1 construct: membranes were prepared from bovine pituitary; from tissue; host or cells: bovine pituitary
T1 sequence (P32236 1-328): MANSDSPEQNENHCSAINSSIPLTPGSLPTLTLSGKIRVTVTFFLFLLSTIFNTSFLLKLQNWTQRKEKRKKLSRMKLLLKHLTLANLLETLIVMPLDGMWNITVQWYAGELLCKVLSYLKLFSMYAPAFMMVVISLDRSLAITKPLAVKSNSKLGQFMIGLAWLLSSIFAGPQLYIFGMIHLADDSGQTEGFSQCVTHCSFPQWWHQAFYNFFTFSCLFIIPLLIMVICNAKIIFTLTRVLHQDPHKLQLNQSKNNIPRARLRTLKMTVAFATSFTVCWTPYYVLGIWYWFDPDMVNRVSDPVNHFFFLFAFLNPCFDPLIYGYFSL
Outline: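 Bound label captured on 0.1% polyethyleneimine-treated GF/C filters, washed three times with PBS, counted. IC50 derived; identical set-up for every species.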

[3] = molecular target: 5-HT2a (Homo sapiens, UniProt P28223); assay: Selectivity: 5-HT2a
Chain of 5-HT2a (P28223 whole entry, species assumed): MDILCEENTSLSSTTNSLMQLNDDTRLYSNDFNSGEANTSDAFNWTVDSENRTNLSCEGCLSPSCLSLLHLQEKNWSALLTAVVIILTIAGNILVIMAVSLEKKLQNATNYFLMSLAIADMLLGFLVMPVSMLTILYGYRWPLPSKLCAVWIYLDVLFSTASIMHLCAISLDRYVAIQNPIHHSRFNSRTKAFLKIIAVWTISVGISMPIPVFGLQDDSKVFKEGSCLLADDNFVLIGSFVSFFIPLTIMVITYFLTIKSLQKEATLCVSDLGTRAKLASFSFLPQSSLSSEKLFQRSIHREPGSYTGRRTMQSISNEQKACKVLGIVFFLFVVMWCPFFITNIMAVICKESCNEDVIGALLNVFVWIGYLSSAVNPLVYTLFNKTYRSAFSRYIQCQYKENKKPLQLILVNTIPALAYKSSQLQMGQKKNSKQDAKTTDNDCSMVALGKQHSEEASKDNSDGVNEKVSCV

[4] = molecular target: T2, NPY Y1 (Homo sapiens, UniProt P25929); assay: Selectivity: NPY Y1
T2 sequence (P25929 1-384): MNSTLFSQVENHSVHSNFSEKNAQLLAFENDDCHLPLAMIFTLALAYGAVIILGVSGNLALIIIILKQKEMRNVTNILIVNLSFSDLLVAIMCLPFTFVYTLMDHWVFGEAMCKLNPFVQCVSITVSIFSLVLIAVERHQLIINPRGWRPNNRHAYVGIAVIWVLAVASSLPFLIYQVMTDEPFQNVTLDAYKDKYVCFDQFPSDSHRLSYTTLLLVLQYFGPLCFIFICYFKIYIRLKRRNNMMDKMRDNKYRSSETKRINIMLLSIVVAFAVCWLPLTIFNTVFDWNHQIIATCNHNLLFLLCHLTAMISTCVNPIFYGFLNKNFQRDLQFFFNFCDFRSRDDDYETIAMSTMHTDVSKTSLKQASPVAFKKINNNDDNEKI

[5] = molecular target: 5-HT7 (Homo sapiens, UniProt P34969); assay: Selectivity: 5-HT7
Chain of 5-HT7 (P34969 whole entry, species assumed): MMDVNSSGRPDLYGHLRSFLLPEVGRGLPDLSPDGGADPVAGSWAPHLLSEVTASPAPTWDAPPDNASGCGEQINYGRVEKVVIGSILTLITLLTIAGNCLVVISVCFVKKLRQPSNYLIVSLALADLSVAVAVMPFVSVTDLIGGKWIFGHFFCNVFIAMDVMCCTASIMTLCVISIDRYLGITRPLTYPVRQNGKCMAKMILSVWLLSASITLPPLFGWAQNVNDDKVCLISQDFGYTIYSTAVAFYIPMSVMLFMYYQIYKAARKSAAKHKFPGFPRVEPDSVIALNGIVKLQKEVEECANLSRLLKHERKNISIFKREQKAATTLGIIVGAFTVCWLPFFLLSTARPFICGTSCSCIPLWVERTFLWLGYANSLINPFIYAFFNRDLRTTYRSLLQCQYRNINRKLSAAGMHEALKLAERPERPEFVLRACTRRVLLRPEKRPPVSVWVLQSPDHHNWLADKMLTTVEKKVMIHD

[6] = molecular target: GLP-1 (Homo sapiens, UniProt P43220); assay: Selectivity: GLP-1
Chain of GLP-1 (P43220 24-463): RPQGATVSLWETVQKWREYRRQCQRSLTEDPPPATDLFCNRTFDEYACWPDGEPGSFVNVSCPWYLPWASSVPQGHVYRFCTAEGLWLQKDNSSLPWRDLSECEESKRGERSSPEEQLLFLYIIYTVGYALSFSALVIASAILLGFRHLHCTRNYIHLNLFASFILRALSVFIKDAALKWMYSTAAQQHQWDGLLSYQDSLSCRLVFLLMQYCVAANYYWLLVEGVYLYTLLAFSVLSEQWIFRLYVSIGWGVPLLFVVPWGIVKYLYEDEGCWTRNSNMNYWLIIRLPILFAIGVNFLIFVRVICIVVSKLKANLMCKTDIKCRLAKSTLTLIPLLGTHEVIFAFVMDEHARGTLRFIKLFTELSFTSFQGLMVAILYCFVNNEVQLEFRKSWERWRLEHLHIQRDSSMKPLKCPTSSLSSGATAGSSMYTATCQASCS

[7] = molecular target: D2 Dopamine (Homo sapiens, UniProt P14416); assay: Selectivity: D2 Dopamine
Chain of D2 Dopamine (P14416 whole entry): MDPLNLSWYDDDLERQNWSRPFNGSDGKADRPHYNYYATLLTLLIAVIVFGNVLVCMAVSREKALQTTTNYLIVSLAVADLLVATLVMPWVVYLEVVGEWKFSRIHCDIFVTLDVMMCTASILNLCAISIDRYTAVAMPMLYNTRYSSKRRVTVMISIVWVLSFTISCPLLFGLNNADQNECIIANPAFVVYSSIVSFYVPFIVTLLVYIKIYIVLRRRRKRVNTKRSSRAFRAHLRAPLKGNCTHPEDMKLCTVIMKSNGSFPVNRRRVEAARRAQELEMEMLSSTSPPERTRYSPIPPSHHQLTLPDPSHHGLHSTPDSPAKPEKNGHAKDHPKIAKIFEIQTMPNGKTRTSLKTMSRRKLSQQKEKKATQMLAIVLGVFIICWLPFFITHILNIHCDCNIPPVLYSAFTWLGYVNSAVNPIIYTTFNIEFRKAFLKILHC

[8] = Metabolism rate, pmol/min/mg at 1 μM, rat male; format: in vitro ADME; conditions: 1 μM compound
[9] = Metabolism rate, pmol/min/mg at 1 μM, rat female; format: in vitro ADME; conditions: 1 μM compound
[10] = means ± SE of at least three experiments performed in duplicate, read-out: Bovine IC50

Row | Compound | IC50 [2, 10] | Ki [3] | IC50 [4] | Ki [5] | IC50 [6] | Ki [7] | also measured
1 | CC(=O)N[C@H](Cc1ccc2ccccc2c1)C(=O)N[C@H](Cc1ccc(Cl)cc1)C(=O)N[C@H](Cc1cccnc1)C(=O)N[C@@H](CO)C(=O)N[C@@H](CCCCNC(=O)c1cccnc1)C(=O)N[C@H](CCCCNC(=O)c1cccnc1)C(=O)N[C@@H](CC(C)C)C(=O)N[C@@H](CCCCNC(C)C)C(=O)N1CCC[C@H]1C(=O)N[C@H](C)C(N)=O [Antide, reference compound] (Ac-[d2Nal][dPhe(4-Cl)][d3Pal]SK(Nicotinoyl)[dK](Nicotinoyl)L[Lys(iPr)]P[dA]-NH2) | 0.00015 ± 2e-05 µM | – | – | – | – | – | LH in CX rats ([1]; Antide 2.0 and 20 ug, sc): reduces LH levels; also recorded: suppresses LH; LH in castrated rat model ([1]; intravenous, Antide 1.0 μg, compound 11 10 mg/kg): reduces LH
2 | Cc1cc2c(cc1Cc1ccc(C(=O)NC[C@H]3CC[C@H](CNC(=N)N)CC3)o1)C(C)(C)CCC2(C)C [Compound 10] | 1.5 ± 0.48 µM | 1.2 µM | 9.7 µM | 1.27 µM | – | – | –
3 | Cc1cc2c(cc1Cc1ccc(C(=O)NCC3CCCC(CNc4nccc(NCC5CCCO5)n4)C3)o1)C(C)(C)CCC2(C)C (stereo not shown) [Compound 11] | 0.32 ± 0.01 µM | – | 2.55 µM | 1.8 µM | > 10 µM | 0.15 µM | –
4 | Cc1cc2c(cc1Cc1ccc(C(=O)NC[C@H]3CC[C@H](C(=O)O)CC3)o1)C(C)(C)CCC2(C)C [Compound 12] | 10.4 ± 3 µM | > 4 µM | > 10 µM | > 4.5 µM | – | 1.4 µM | –
5 | Cc1cnc(CNC(=O)c2ccc(Cc3cc4c(cc3C)C(C)(C)CCC4(C)C)o2)cn1 [Compound 13] | 0.53 ± 0.1 µM | – | > 10 µM | > 4.4 µM | > 10 µM | > 3.2 µM | –
6 | COc1cccc(OC)c1NC(=O)c1ccc(Cc2cc3c(cc2C)C(C)(C)CCC3(C)C)o1 [Compound 20] | – | 2.35 µM | > 10 µM | > 4.4 µM | > 10 µM | > 3.2 µM | Ki [6]: > 10 µM; Ki [4]: > 10 µM; IC50 ([2]; read-out: bGnRH IC50): 0.13 µM
7 | Cc1cc2c(cc1Cc1ccc(C(=O)NCc3nc4ccccc4[nH]3)o1)C(C)(C)CCC2(C)C [Compound 48] | – | – | > 10 µM | > 4.4 µM | > 10 µM | > 3.2 µM | % Max LH Suppression ([1]; 10 mg/kg iv): 75%; time of % Max LH Suppression ([1]; 10 mg/kg iv): 0.5 h; ≧50% Suppression Duration ([1]; 10 mg/kg iv): <1 h; % Max LH Suppression ([1]; 20 mg/kg iv): 51%; time of % Max LH Suppression ([1]; 20 mg/kg iv): 1 h; ≧50% Suppression Duration ([1]; 20 mg/kg iv): 1 h; Rat male pmol/min/mg 1 μM [8]: 2869 pmol/min/mg; Rat female pmol/min/mg 1 μM [9]: 135 pmol/min/mg; IC50 ([2]; read-out: bGnRH IC50): 0.49 µM
